Measurements published in patent US10239871B2, “Compounds and methods for regulating integrins” (ADHAERE PHARMACEUTICALS, INC., priority 2012, dated 2019).
“Also recorded” adds a separate entry of the source.

What was measured:
CD11b/CD18 [1] = experiment: Cell adhesion assay, primary rat macrophages on immobilized fibrinogen; type: cell-based; conditions: vs non-activating Ca2+ and Mg2+
Description: (§1) K562 cells stably transfected with plasmid encoding wild-type integrin CD11b/CD18 (K562 WT cells) have been described previously and were maintained in Iscove's Modified Dulbecco's Medium (IMDM) supplemented with 10% FBS and G418 (0.5 mg/ml). The murine macrophage cell line (RAW 264.7 cells) was obtained from ATCC and the cells were maintained in DMEM supplemented with 10% heat-inactivated FBS according to the manufacturer's instructions. The primary rat peritoneal macrophages were isolated from the wild type Fisher 344 rats that had been previously injected with 5 mL of Brewer's thioglycolate broth (Sigma-Aldrich). Macrophage purity was directly analyzed by single channel flow cytometry using rat macrophage specific monoclonal antibodies ED1 (AbD Serotec, Raleigh, N.C.), WT.5 (BD Biosciences) and His36 (BD Biosciences). Purity was typically >85%. Macrophages were used in assays immediately upon isolation.
(§2) Cell adhesion assays using K562 WT, murine RAW 264.7 cells and the primary rat macrophages were performed as previously described and used immobilized fibrinogen as the ligand of CD11b/CD18 [49]. […] The remaining adherent cells were fixed using 4% formaldehyde and quantified by imaging microscopy as previously described (22, 63). […]

CD11b/CD18 [2] = molecular target: T1, CD11b/CD18 (Homo sapiens, UniProt P11215); experiment: Immunofluorescence microscopy of CD11b/CD18 clustering on K562 WT cells; type: cell-based; set-up: K562 cells stably transfected with plasmid encoding wild-type integrin CD11b/CD18; expressed in transfected cells
Description: To visualize changes upon ligand binding, fibrinogen (50 μg/mL) was also added to the cell suspension media in a second set of incubations. The cells were fixed in suspension and incubated with mAb 184, which is specific for CD11b/CD18, followed by Alexa Fluor 488-conjugated goat antibody against mouse Ig (Sigma). Fluorescence images were recorded with a Leica DMI16000 deconvolution microscope using an HCX APO 40×/0.75 DRY objective with a DCF360FX camera and with Leica LAS-AF software. A 3-dimensional representation of CD11b/CD18 fluorescence intensity and the analysis of the number of CD11b/CD18 clusters per cell was performed using ImageJ software as described. Clustering determination was carried out by counting individual fluorescent peaks that were projected from the basal to the apical side of the cell and were at least 50% above the base line levels. The images presented are representative of at least 20 cells analyzed for each condition from at least three independent experiments.
Therefore, to investigate, a combination of confocal microscopy (to study clustering) and western blotting assays (to study intracellular signaling) using K562 WT cells were used. First, CD11b/CD18 cell-surface distribution and macro clustering was studied under various conditions using confocal microscopy. K562 WT cells in suspension were incubated with various agonists, fixed with paraformaldehyde and the surface expressed CD11b/CD18 was fluorescently stained with anti-CD11b/CD18 mAb 1B4. […] The fluorescence images shown are representative of three independent experiments. […] Also shown below each image is a 3D representation of CD11b fluorescence intensity for selected cells, analyzed in ImageJ In FIG. 5B, data shown are mean±SEM from >40 cells per condition and from >3 independent experiments for each condition. ***p<0.0001, ns=not significant.

CD11b/CD18 [3] = molecular target: T2, CD11b/CD18 (Mus musculus, UniProt P05555); experiment: Cell adhesion assay, RAW 264.7 cells on immobilized fibrinogen; type: cell-based, murine; conditions: vs basal 1 mM Ca2+ and Mg2+
T2 construct: that have constitutive CD11b/CD18 surface expression were used; host or cells: RAW 264.7 murine macrophage cell line
Description: as §1, §2

SD rats = experiment: Subacute toxicity assessment in rats; type: in vivo, rat
Description: LA1 is non-toxic in vivo. A subacute toxicity assessment of LA1 in rats was performed.
LA1 had no effect on the daily food intake or growth.
Next, a subacute toxicity assessment was performed of LA1 in rats in the Comparative Pathology core. […] LA1 had no effect on the daily food intake or growth.

Human macrophages [4] = experiment: mRNA levels of pro-inflammatory factors in LPS-treated human macrophages; type: cell-based; conditions: co-treated with LPS
Description: It was shown that β2 integrin agonist leukdherin LA1 modulates the expression levels of various pro-inflammatory factors in cells. Human macrophages were treated with LPS in the absence or presence of LA1 in vitro and determined the levels of mRNA in the cells at various time points using Nanostring inflammation array (184 genes) and exiqon microRNA panels.

Human macrophages [5] = experiment: TNF-α release from human macrophages; type: cell-based
CD11b/CD18 [6] = molecular target: T1, CD11b/CD18; experiment: Cell adhesion assay, K562 WT cells on immobilized fibrinogen; type: cell-based; set-up: K562 cells stably transfected with plasmid encoding wild-type integrin CD11b/CD18; expressed in transfected cells; conditions: vs basal Ca2+ plus Mg2+ (1 mM each); leukadherins 15 μM, mAbs 20 μg/mL, Mn2+ 1 mM
Description: as §1, §2

Diabetic nephropathy = Diabetic nephropathy model (BTBR ob/ob mouse); type: in vivo
Description: The efficacy of LA1 was tested in an experimental model of Diabetic nephropathy (DN), where inflammation plays a major role. It was surmised that reducing leukocyte activation, recruitment and influx can be a beneficial strategy for developing therapeutics against DN.

[7] = daily administration, fully diabetic animals

T2 sequence (P05555 17-1153): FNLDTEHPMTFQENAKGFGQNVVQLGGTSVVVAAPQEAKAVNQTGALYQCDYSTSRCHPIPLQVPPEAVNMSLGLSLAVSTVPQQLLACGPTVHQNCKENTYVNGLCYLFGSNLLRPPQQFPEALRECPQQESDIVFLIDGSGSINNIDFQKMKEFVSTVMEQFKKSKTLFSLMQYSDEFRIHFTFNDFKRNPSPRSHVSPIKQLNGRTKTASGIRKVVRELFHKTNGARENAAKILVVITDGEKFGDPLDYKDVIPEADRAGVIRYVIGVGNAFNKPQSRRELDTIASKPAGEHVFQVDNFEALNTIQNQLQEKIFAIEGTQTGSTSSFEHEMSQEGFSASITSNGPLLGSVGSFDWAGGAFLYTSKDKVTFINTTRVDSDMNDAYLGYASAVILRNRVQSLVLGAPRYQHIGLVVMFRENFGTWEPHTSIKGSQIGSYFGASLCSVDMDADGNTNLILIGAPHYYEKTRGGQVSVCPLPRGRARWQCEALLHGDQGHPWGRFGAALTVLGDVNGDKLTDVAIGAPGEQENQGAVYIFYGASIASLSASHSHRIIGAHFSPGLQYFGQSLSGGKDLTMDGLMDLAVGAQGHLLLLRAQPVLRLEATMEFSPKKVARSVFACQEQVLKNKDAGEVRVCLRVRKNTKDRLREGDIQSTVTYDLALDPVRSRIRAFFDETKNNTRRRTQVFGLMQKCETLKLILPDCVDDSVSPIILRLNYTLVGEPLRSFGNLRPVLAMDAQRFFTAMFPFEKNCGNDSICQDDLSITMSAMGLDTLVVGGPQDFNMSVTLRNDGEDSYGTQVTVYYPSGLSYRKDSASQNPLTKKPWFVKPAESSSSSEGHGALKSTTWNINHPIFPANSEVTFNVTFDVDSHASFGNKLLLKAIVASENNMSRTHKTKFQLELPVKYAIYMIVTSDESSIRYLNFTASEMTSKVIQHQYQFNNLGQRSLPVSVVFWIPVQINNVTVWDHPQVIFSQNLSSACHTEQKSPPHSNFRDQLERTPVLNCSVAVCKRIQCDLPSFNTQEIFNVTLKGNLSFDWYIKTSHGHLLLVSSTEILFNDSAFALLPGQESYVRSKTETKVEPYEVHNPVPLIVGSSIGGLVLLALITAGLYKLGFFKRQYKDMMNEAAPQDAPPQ
T2 sequence (P11835 24-771 partner): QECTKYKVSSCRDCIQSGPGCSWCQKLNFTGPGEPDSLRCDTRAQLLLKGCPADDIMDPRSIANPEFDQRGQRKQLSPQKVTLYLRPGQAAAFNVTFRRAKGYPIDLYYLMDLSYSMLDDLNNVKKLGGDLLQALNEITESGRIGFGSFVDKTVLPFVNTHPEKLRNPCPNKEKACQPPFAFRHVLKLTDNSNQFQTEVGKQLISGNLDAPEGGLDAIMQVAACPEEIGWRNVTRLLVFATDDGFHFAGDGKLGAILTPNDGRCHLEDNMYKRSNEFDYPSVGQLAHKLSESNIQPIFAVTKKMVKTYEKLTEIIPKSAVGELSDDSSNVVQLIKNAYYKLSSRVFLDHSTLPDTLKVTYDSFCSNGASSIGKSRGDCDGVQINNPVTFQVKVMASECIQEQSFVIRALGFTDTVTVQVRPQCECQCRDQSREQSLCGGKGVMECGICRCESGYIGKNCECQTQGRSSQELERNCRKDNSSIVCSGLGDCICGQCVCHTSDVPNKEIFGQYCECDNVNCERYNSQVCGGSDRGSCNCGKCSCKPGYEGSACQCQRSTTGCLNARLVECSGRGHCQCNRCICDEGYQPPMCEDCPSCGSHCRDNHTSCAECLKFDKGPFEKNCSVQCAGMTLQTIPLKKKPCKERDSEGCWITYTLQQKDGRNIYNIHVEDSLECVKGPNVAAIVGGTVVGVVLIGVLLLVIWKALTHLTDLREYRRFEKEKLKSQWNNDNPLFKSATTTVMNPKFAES

O=C(O)c1ccc(-c2ccc(/C=C3\SC(=S)N(Cc4ccccc4)C3=O)o2)cc1 [LA1]
adhesion of primary rat macrophages to immobilized fibrinogen (CD11b/CD18 [1]): significantly enhanced the level of macrophage adhesion | CD11b/CD18 macro clustering on cell surface (CD11b/CD18 [2]; absence of ligand fibrinogen, 45 minutes at 37° C.): did not induce any significant CD11b/CD18 macro clustering | CD11b/CD18 macro clustering on cell surface (CD11b/CD18 [2]; presence of fibrinogen 50 μg/mL): did so in the presence of fibrinogen | adhesion of RAW 264.7 cells to immobilized fibrinogen (CD11b/CD18 [3]): significantly and similarly increased the level of cell adhesion | Haematological constants (SD rats; IP ~3 mg/kg/d for 21 d): on par with those of controls | biochemical measurements in serum and liver (enzyme levels, serum constituents) (SD rats; IP ~3 mg/kg/d for 21 d): no appreciable changes | daily food intake or growth (SD rats; IP ~3 mg/kg/d for 21 d): no effect | overt toxicity or mortality (SD rats; IP ~3 mg/kg/d for 21 d, SD rats of both sexes): failed to induce any overt toxicity or mortality | relative organ weights of vital organs and their histoarchitecture (SD rats; autopsy, lung, heart, spleen, liver, kidney): no significant alterations | mRNA levels of pro-inflammatory factors upregulated by LPS (Human macrophages [4]): significantly reduced | cellular morphology (Human macrophages [5]; LA1 alone): no effect on cellular morphology | TNF-α release from stimulated macrophages (Human macrophages [5]; dsRNA antigen (R848) plus LA1, lupus patients and healthy volunteers): significantly reduced the TNF-α release; also recorded: significantly impaired | TNF-α induction by LA1 alone (Human macrophages [5]; over 24 hrs): did not induce TNF-α | adhesion of K562 WT cells to immobilized fibrinogen (CD11b/CD18 [6]): significantly increased | glomerular damage and glomerular mesangial sclerosis (Diabetic nephropathy; BTBR ob/ob mouse model): reduced glomerular damage and glomerular mesangial sclerosis | kidney function (Diabetic nephropathy; [7]): preserved kidney function | number of infiltrating leukocytes in the kidney (Diabetic nephropathy; [7]): significantly reduced the number of infiltrating leukocytes
